The source of these data is US20020183384A1, “Methods of treating nuclear factor-kappa B mediated diseases and disorders” (priority 2001, published 2002).

The subject of the test is NF-κB mediated transcription. The test is described as follows: NF-κB driven β-lactamase reporter assay in ECV-304 NF-κB.βlaZ cells (AURORA CCF2 fluorescence). Type of test: cell-based, human. Particulars: 10 μM compound, ECV-304 NF-κB.βlaZ cells stimulated with 10 ng/mL TNF-α or 100 pg/mL IL-1β, 6 hours at 37° C., inhibition of maximum blue/green ratio; for inhibition at 10 µM: Homo sapiens, read-out: Percent Inhibition at 10 μM. The text has this: Introduction: Described below is an in vitro, cell-based, high throughput screening assay that reliably identifies inhibitors of NF-κB mediated transcription.
The assay takes advantage of AURORA (Aurora Bioscience Corporation, La Jolla, Calif.) fluorescence technology. Endothelial cell vein-304 (ECV-304) cells, an endothelial-like immortalized cell type, may be stably transfected with a plasmid vector containing the cDNA for the enzyme β-lactamase (under the control of a basal promoter, Stratagene pNFκB-luc vector) and 5 copies of an human immunodeficiency virus-1 (HIV-1) NF-κB binding site. ECV-304 cells are described by Takahashi K. et al. in Spontaneous Transformation and Immobilization of Human Endothelial Cells, In Vitro Cell. Dev. Biol. 1990;25:265-274. Activation of NF-κB in ECV-304 by cytokines such as TNF-α or interleuken-1 beta (IL-1β) results in the production of β-lactamase, which cleaves a green fluorescent substrate (excitation/emission wavelengths 395 nm1530 nm) to yield a blue fluorescent product (excitation/emission wavelengths 395 nm/460 nm). Visually, the uncleaved green fluorescent substrate is sequestered intracellularly and emits green fluorescence, while the cleaved product emits blue fluorescence. Fluorescence is quantitated spectrophotometrically, and the spectral intensity of blue fluorescence versus green fluorescence can be used to calculate the degree of activation of NF-κB.
The assay was performed as outlined here and described in detail below. ECV-304 cells permanently transfected with the NF-κB driven β-lactamase gene (ECV-304 NF-κB.βlaZ) were plated in clear-bottom, black 96-well plates (1.25×10^4 cells/well) in media-199 (M-199) media containing 2% fetal bovine serum (FBS). […] The AURORA fluorescent disclosing reagent was then added. After one additional hour, the plates were read in a fluorometer at the blue 395 nm/460 nm (excitation/emission) and green 395 nm/530 nm wavelengths. Then the blue/green emission ratio was calculated. […] An IC50 for said sulfonylaminocarbonyl derivative was determined from a dose-response curve. This assay was designed to be optionally run in either high or low throughput screening modes.
Five copies of the HIV-1 NF-κB binding site (5′-[…]-3′) along with a TATA box were inserted into the EcorRI/BamHI sites of plasmid pMCRBlaZ to create plasmid p5×KBBlaZ, which procedure is illustrated in Scheme 1 below. [formula]
Cells were selected for antibiotic resistance with Zeocin for approximately 2 weeks. After the stable population had been expanded to a significant number of cells, it was stimulated with IL-1β and stained with AURORA CCF2 dye, a membrane permeant, intracellularly-trapped, fluorescent substrate. Cells that fluoresced blue (indicating a positive response of the NF-κB/β-lactamase reporter to stimulation by IL-1β) in the stimulated/stained population were then sorted by flow cytometry into a pool. The pool was expanded and stained with CCF2, and then the cells that fluoresced green from this unstimulated population (indicating a low background of the NF-κB/β-lactamase reporter construct) were cloned by flow cytometry after adding 1 cell per well in 96-well plates. Clones were allowed to expand. Each cloned cell line was then examined for fold stimulation after stimulation with IL-1β using a CCF2 reporter assay, and these stimulated cells were compared to unstimulated cells.
Cells: ECV-304 NF-κB β-Lactamase clone 1E8
Inhibitors: Prepared stock solutions of aminosulfonyl derivatives at 10 mM concentration in DMSO;
c) Added 10 μL of B into appropriate well in assay plate (the final concentration of drug is 10 μM), and […]

Counter-ions that a name gives are not always drawn. Like-named read-outs stand apart in the source and are kept apart here. Some results are limits rather than exact numbers.

Take `CC(C)c1cccc(C(C)C)c1OC(=O)NS(=O)(=O)N(Cc1ccccc1)Cc1ccccc1` [Example 25, Carbamic acid, [[bis(phenylmethyl)amino]sulfonyl]-, 2,6-bis(1-methylethyl)-phenyl ester]: the inhibition at 10 µM was determined as 33.2%.
Turning to `CC(C)c1cccc(C(C)C)c1OC(=O)NS(=O)(=O)N(c1ccccc1)c1ccccc1` [Example 26, Carbamic acid, [(diphenylamino)sulfonyl]-, 2,6-bis(1-methylethyl)phenyl ester], the inhibition at 10 µM was 32.8%.
As for `CCCCN(CCCC)S(=O)(=O)NC(=O)Oc1c(C(C)C)cccc1C(C)C` [Example 27, Carbamic acid, [(dibutylamino)sulfonyl]-, 2,6-bis(1-methylethyl)phenyl ester], the inhibition at 10 µM came out at 26.1%.
Turning to `CC(C)c1cccc(C(C)C)c1OC(=O)NS(=O)(=O)Oc1c(C(C)C)cccc1C(C)C` [Example 28, Carbamic acid, [[2,6-bis(1-methylethyl)phenoxy]sulfonyl]-, 2,6-bis(1-methylethyl)phenyl ester], the inhibition at 10 µM came to 30.2%.
`CC(C)c1cccc(C(C)C)c1NS(=O)(=O)NC(=O)N(Cc1ccccc1)Cc1ccccc1` [Example 29, N′-[[[2,6-bis(1-methylethyl)phenyl]amino]sulfonyl]-N,N-bis(phenylmethyl)-urea]: the inhibition at 10 µM (ECV-304, 6 h) is 38.5%.
In the case of `CCCCN(CCCC)S(=O)(=O)NC(=O)Oc1c(C(C)(C)C)cc(C)cc1C(C)(C)C` [Example 30, Carbamic acid, [(dibutylamino)sulfonyl]-, 2,6-bis(1,1-dimethylethyl)-4-methylphenyl ester], the inhibition at 10 µM was found to be 52%.
Consider `CCCCCN(CCCCC)S(=O)(=O)NC(=O)Oc1c(C(C)(C)C)cc(C)cc1C(C)(C)C` [Example 31, Carbamic acid, [(dipentylamino)sulfonyl]-, 2,6-bis(1,1-dimethylethyl)-4-methylphenyl ester], for which the inhibition at 10 µM was 74%.
Still for that read-out and setting: to `Cc1cc(C(C)(C)C)c(OC(=O)NS(=O)(=O)N(C(C)C)C(C)C)c(C(C)(C)C)c1` [Example 32, Carbamic acid, [[bis(1-methylethyl)amino]sulfonyl]-, 2,6-bis(1,1-dimethylethyl)-4-methylphenyl ester] belongs 20.3%.
For the compound `CCCCCCN(CCCCCC)S(=O)(=O)NC(=O)Oc1c(C(C)(C)C)cc(C)cc1C(C)(C)C` [Example 33, Carbamic acid, [(dihexylamino)sulfonyl]-, 2,6-bis(1,1-dimethylethyl)-4-methylphenyl ester], the inhibition at 10 µM was 58.6%.
The same measure, in the same setting: to `CCCCCCNS(=O)(=O)NC(=O)Oc1c(C(C)(C)C)cc(C)cc1C(C)(C)C` [Example 34, Carbamic acid, [(hexylamino)sulfonyl]-, 2,6-bis(1,1-dimethylethyl)-4-methylphenyl ester] belongs 24.3%.
Turning to `CC(C)c1cccc(C(C)C)c1NC(=O)NS(=O)(=O)N1CCC(c2ccccc2)CC1` [Example 35, N-[2,6-bis(1-methylethyl)phenyl]-N′-[(4-phenyl-1-piperidinyl)-sulfonyl]-urea], the inhibition at 10 µM (ECV-304, 6 h) was under 10%.
Regarding `CCCCCCN(CCCCCC)S(=O)(=O)NC(=O)Nc1c(C(C)C)cccc1C(C)C` [Example 36, N-[2,6-bis(1-methylethyl)phenyl]-N′-[(dihexylamino)sulfonyl]-urea], under “ECV-304, 6 h”, the inhibition at 10 µM was 51.2%.
As for `CC(C)c1cccc(C(C)C)c1NC(=O)NS(=O)(=O)N(CCCN(C)C)CCCN(C)C` [Example 37, N-[[bis[3-(dimethylamino)propyl]amino]sulfonyl]-N′-[2,6-bis(1-methylethyl)phenyl]-urea], the inhibition at 10 µM (ECV-304, 6 h) is under 10%.
Consider `Cc1cc(C(C)(C)C)c(OC(=O)NS(=O)(=O)N(C)CCc2ccccc2)c(C(C)(C)C)c1` [Example 38, Carbamic acid, [[methyl(2-phenylethyl)amino]sulfonyl]-, 2,6-bis(1,1-dimethylethyl)-4-methylphenyl ester], for which the inhibition at 10 µM came out at 31.5%.
Turning to `CCCCCCNS(=O)(=O)NC(=O)Nc1c(C(C)C)cccc1C(C)C` [Example 39, N-[2,6-bis(1-methylethyl)phenyl]-N′-[(hexylamino)sulfonyl]-urea], the inhibition at 10 µM (ECV-304, 6 h) is under 10%.
In the case of `Cc1cc(C(C)(C)C)c(OC(=O)NS(=O)(=O)N(CCCN(C)C)CCCN(C)C)c(C(C)(C)C)c1` [Example 40, Carbamic acid, [[bis[3-(dimethylamino)propyl]amino]sulfonyl]-, 2,6-bis(1,1-dimethylethyl)-4-methylphenyl ester], the inhibition at 10 µM is under 10%.
Take `CC(C)c1cccc(C(C)C)c1NC(=O)NS(=O)(=O)N(CC1CCCO1)CC1CCCO1` (centres unmarked) [Example 41, N-[2,6-bis(1-methylethyl)phenyl]-N′-[[bis[(tetrahydro-2-furanyl)methyl]amino]sulfonyl]-urea,]: the “Percent Inhibition at 10 μM” value is given as under 10%.
As for `Cc1cc(C(C)(C)C)c(OC(=O)NS(=O)(=O)N(C)CCc2ccccn2)c(C(C)(C)C)c1` [Example 42, Carbamic acid, [[methyl[2-(2-pyridinyl)ethyl]amino]sulfonyl]-, 2,6-bis(1,1-dimethylethyl)-4-methylphenyl ester, monohydrochloride], the inhibition at 10 µM is under 10%.
Same read-out and setting: the value for `CCCCCCCCN(C)S(=O)(=O)NC(=O)Oc1c(C(C)(C)C)cc(C)cc1C(C)(C)C` [Example 43, Carbamic acid, [(methyloctylamino)sulfonyl]-, 2,6-bis(1,1-dimethylethyl)-4-methylphenyl ester] was 70.2%.
For `CCN(CC)S(=O)(=O)NC(=O)Nc1c(C(C)C)cccc1C(C)C` [Example 44, Urea, N-[2,6-bis(1-methylethyl)phenyl]-N′-[(diethylamino)sulfonyl]-], the inhibition at 10 µM (ECV-304, 6 h) is under 10%.
With `CCCCCCCCN(C)S(=O)(=O)NC(=O)Nc1c(C(C)C)cccc1C(C)C` [Example 45, Urea, N-[2,6-bis(1-methylethyl)phenyl]-N′-[(methyloctylamino)sulfonyl]-], where the note is “ECV-304, 6 h”, the inhibition at 10 µM is 53.5%.
For `CCCCCCCCN(CCCCCCCC)S(=O)(=O)NC(=O)Oc1c(C(C)(C)C)cc(C)cc1C(C)(C)C` [Example 46, Carbamic acid, [(dioctylamino)sulfonyl]-, 2,6-bis(1,1-dimethylethyl)-4-methylphenyl ester], the inhibition at 10 µM came out at 34.8%.
On to `COc1cc(C(C)(C)C)c(OC(=O)NS(=O)(=O)NCC(c2ccccc2)c2ccccc2)c(C(C)(C)C)c1` [Example 47, Carbamic acid, [[(2,2-diphenylethyl)amino]sulfonyl]-, 2,6-bis(1,1-dimethylethyl)-4-methoxyphenyl ester], for which the inhibition at 10 µM was 41.9%.
Take `Cc1cc(C(C)(C)C)c(OC(=O)NS(=O)(=O)Oc2ccccc2)c(C(C)(C)C)c1` [Example 48, Carbamic acid, (phenoxysulfonyl)-, 2,6-bis(1,1-dimethylethyl)-4-methylphenyl ester]: the inhibition at 10 µM was determined as 13.8%.
For the compound `CCCCCCOS(=O)(=O)NC(=O)Oc1c(C(C)(C)C)cc(C)cc1C(C)(C)C` [Example 49, Carbamic acid, [(hexyloxy)sulfonyl]-, 2,6-bis(1,1-dimethylethyl)-4-methylphenyl ester], the inhibition at 10 µM was 22.9%.
With `COc1cc(C(C)(C)C)c(OC(=O)NS(=O)(=O)Nc2c(C(C)C)cccc2C(C)C)c(C(C)(C)C)c1` [Example 50, Carbamic acid, [[[2,6-bis(1-methylethyl)phenyl]amino]sulfonyl]-, 2,6-bis(1,1-dimethylethyl)-4-methoxyphenyl ester], the inhibition at 10 µM worked out at 39.1%.
